Results taken from article PMC12121777 (PLOS One, 2025).
Values after ≈ are worked out from the molar mass of the structure shown. Read-outs that look alike come from different tables or passages of the source.

Legend:
[1] = system: Mycobacterium avium 330/88; experiment: MIC, micro method in Šula's semisynthetic medium, M. avium; type: cell-based
[2] = system: Mtb 331/88 (i.e., H37Rv); experiment: MIC, micro method in Šula's semisynthetic medium, drug-susceptible Mtb; type: cell-based, Mycobacterium tuberculosis; conditions: Mycobacterium tuberculosis, H37RV
[3] = system: Mycobacterium kansasii 6509/96; experiment: MIC, micro method in Šula's semisynthetic medium, M. kansasii clinical isolate; type: cell-based; conditions: read-out: MIC M. kansasii 6509/96
[4] = 330/88, 336 h, read-out: MIC M. avium 330/88
[5] = 330/88, 504 h, read-out: MIC M. avium 330/88

| SMILES | MIC [1, 4] | MIC [1, 5] | MIC ([2]; 336 h, 14 days) | MIC ([2]; 504 h, 21 days) | MIC ([3]; 6509/96, 168 h) | MIC ([3]; 6509/96, 336 h) | MIC ([3]; 6509/96, 504 h) | MIC ([1]; 330/88, read-out: MIC M. avium) |
| --- | --- | --- | --- | --- | --- | --- | --- | --- |
| COc1ccc(CNc2nnc(-c3cc([N+](=O)[O-])cc([N+](=O)[O-])c3)o2)cc1 [Compound 7b, 5-(3,5-Dinitrophenyl)-N-(4-methoxybenzyl)-1,3,4-oxadiazol-2-amine] | 2 µM (≈ 0.743 µg/mL) | 2 µM (≈ 0.743 µg/mL) | ≤ 0.03 µM | ≤ 0.03 µM | ≤ 0.03 µM | ≤ 0.03 µM | ≤ 0.03 µM |  |
| O=[N+]([O-])c1cc(-c2nnc(NCc3ccc(Cl)cc3)s2)cc([N+](=O)[O-])c1 [Compound 8c, N-(4-Chlorobenzyl)-5-(3,5-dinitrophenyl)-1,3,4-thiadiazol-2-amine] | 2 µM (≈ 0.784 µg/mL) | 2 µM (≈ 0.784 µg/mL) | ≤ 0.03 µM | ≤ 0.03 µM | 0.06 µM (≈ 0.0235 µg/mL) | 0.125 µM (≈ 0.049 µg/mL) | 0.125 µM (≈ 0.049 µg/mL) |  |
| O=[N+]([O-])c1cc(-c2nnc(NCc3ccccc3)o2)cc([N+](=O)[O-])c1 [Compound 7a, N-Benzyl-5-(3,5-dinitrophenyl)-1,3,4-oxadiazol-2-amine] | 4 µM (≈ 1.37 µg/mL) | 4 µM (≈ 1.37 µg/mL) | 0.125 µM (≈ 0.0427 µg/mL) | 0.25 µM (≈ 0.0853 µg/mL) | 0.5 µM (≈ 0.171 µg/mL) | 1 µM (≈ 0.341 µg/mL) | 1 µM (≈ 0.341 µg/mL) |  |
| CCCCCCCCCCCCCCCCCNC(=O)NNC(=O)c1cc([N+](=O)[O-])cc([N+](=O)[O-])c1 [Compound 4q, 2-(3,5-Dinitrobenzoyl)-N-heptadecylhydrazine-1-carboxamide] | > 500 µM | > 500 µM | 8 µM (≈ 4.06 µg/mL) | 16 µM (≈ 8.12 µg/mL) | 8 µM (≈ 4.06 µg/mL) | 16 µM (≈ 8.12 µg/mL) | 16 µM (≈ 8.12 µg/mL) |  |
| CCNc1nnc(-c2cc([N+](=O)[O-])cc([N+](=O)[O-])c2)o1 [Compound 5b, 5-(3,5-Dinitrophenyl)-N-ethyl-1,3,4-oxadiazol-2-amine] | > 1000 µM | > 1000 µM | 8 µM (≈ 2.23 µg/mL) | 16 µM (≈ 4.47 µg/mL) | 16 µM (≈ 4.47 µg/mL) | 32 µM (≈ 8.93 µg/mL) | 32 µM (≈ 8.93 µg/mL) | > 1000 µM |
| O=[N+]([O-])c1cc(-c2nnc(NCc3ccc(Br)cc3)o2)cc([N+](=O)[O-])c1 [Compound 7e, N-(4-Bromobenzyl)-5-(3,5-dinitrophenyl)-1,3,4-oxadiazol-2-amine] | 2 µM (≈ 0.84 µg/mL) | 4 µM (≈ 1.68 µg/mL) | 0.25 µM (≈ 0.105 µg/mL) | 0.25 µM (≈ 0.105 µg/mL) | 0.25 µM (≈ 0.105 µg/mL) | 0.5 µM (≈ 0.21 µg/mL) | 0.5 µM (≈ 0.21 µg/mL) |  |
| CCCCCCCCCCCCCCCCNc1nnc(-c2cc([N+](=O)[O-])cc([N+](=O)[O-])c2)o1 [Compound 5p, 5-(3,5-Dinitrophenyl)-N-hexadecyl-1,3,4-oxadiazol-2-amine] | 8 µM (≈ 3.8 µg/mL) | 16 µM (≈ 7.61 µg/mL) | 8 µM (≈ 3.8 µg/mL) | 8 µM (≈ 3.8 µg/mL) | 2 µM (≈ 0.951 µg/mL) | 4 µM (≈ 1.9 µg/mL) | 8 µM (≈ 3.8 µg/mL) |  |
| CCCCCCCCCCCCSc1nnc(-c2cc([N+](=O)[O-])cc([N+](=O)[O-])c2)o1 [Compound 10, 2-(3,5-Dinitrophenyl)-5-(dodecylthio)-1,3,4-oxadiazole] | 500 µM (≈ 218 µg/mL) | 500 µM (≈ 218 µg/mL) | 8 µM (≈ 3.49 µg/mL) | 8 µM (≈ 3.49 µg/mL) | 2 µM (≈ 0.873 µg/mL) | 4 µM (≈ 1.75 µg/mL) | 8 µM (≈ 3.49 µg/mL) |  |
| CNc1nnc(-c2cc([N+](=O)[O-])cc([N+](=O)[O-])c2)o1 [Compound 5a, 5-(3,5-Dinitrophenyl)-N-methyl-1,3,4-oxadiazol-2-amine] | 500 µM (≈ 133 µg/mL) | 500 µM (≈ 133 µg/mL) | 8 µM (≈ 2.12 µg/mL) | 16 µM (≈ 4.24 µg/mL) | 16 µM (≈ 4.24 µg/mL) | 32 µM (≈ 8.49 µg/mL) | 32 µM (≈ 8.49 µg/mL) |  |
| CCCCCCCCCCCCCCCCNC(=O)NNC(=O)c1cc([N+](=O)[O-])cc([N+](=O)[O-])c1 [Compound 4p, 2-(3,5-Dinitrobenzoyl)-N-hexadecylhydrazine-1-carboxamide] | > 1000 µM | > 1000 µM | 8 µM (≈ 3.95 µg/mL) | 16 µM (≈ 7.9 µg/mL) | 8 µM (≈ 3.95 µg/mL) | 16 µM (≈ 7.9 µg/mL) | 16 µM (≈ 7.9 µg/mL) |  |
| O=[N+]([O-])c1cc(-c2nnc(NCc3ccc(Cl)cc3)o2)cc([N+](=O)[O-])c1 [Compound 7c, N-(4-Chlorobenzyl)-5-(3,5-dinitrophenyl)-1,3,4-oxadiazol-2-amine] | 1 µM (≈ 0.376 µg/mL) | 2 µM (≈ 0.751 µg/mL) | 0.125 µM (≈ 0.047 µg/mL) | 0.125 µM (≈ 0.047 µg/mL) | 0.125 µM (≈ 0.047 µg/mL) | 0.125 µM (≈ 0.047 µg/mL) | 0.25 µM (≈ 0.0939 µg/mL) |  |
| CCCCCCCCCCCCCCCCCCNC(=O)NNC(=O)c1cc([N+](=O)[O-])cc([N+](=O)[O-])c1 [Compound 4r, 2-(3,5-Dinitrobenzoyl)-N-octadecylhydrazine-1-carboxamide] | > 1000 µM | > 1000 µM | 8 µM (≈ 4.17 µg/mL) | 16 µM (≈ 8.35 µg/mL) | 8 µM (≈ 4.17 µg/mL) | 16 µM (≈ 8.35 µg/mL) | 16 µM (≈ 8.35 µg/mL) |  |
| O=[N+]([O-])c1cc(-c2nnc(NCc3ccc(Cl)cc3Cl)s2)cc([N+](=O)[O-])c1 [Compound 8d, N-(2,4-Dichlorobenzyl)-5-(3,5-dinitrophenyl)-1,3,4-thiadiazol-2-amine] | 2 µM (≈ 0.852 µg/mL) | 2 µM (≈ 0.852 µg/mL) | 0.125 µM (≈ 0.0533 µg/mL) | 0.125 µM (≈ 0.0533 µg/mL) | 0.25 µM (≈ 0.107 µg/mL) | 0.5 µM (≈ 0.213 µg/mL) | 0.5 µM (≈ 0.213 µg/mL) |  |
